Data on 6 compounds can be found in ChEMBL document CHEMBL1131686, “Synthesis and biological activities of topoisomerase I inhibitors, 6-N-amino analogues of NB-506” (Bioorg Med Chem Lett, 1999).

Each structure is given as a SMILES string. pEC50, pIC50: −log10 of the molar value.

Data set [1] has as its target Epidermal growth factor receptor (Homo sapiens, UniProt P00533). Description: In vitro activity against Epidermal growth factor receptor (using poly(Glu4Tyr1) as a substrate).
Data set [2] in a line: Ratio of LD10 to that of GID75 was determined; expressed as safety margin. The format is functional.
The target in another data set is T1, DNA topoisomerase 1 (Homo sapiens, UniProt P11387).
T1 sequence (P11387 whole entry): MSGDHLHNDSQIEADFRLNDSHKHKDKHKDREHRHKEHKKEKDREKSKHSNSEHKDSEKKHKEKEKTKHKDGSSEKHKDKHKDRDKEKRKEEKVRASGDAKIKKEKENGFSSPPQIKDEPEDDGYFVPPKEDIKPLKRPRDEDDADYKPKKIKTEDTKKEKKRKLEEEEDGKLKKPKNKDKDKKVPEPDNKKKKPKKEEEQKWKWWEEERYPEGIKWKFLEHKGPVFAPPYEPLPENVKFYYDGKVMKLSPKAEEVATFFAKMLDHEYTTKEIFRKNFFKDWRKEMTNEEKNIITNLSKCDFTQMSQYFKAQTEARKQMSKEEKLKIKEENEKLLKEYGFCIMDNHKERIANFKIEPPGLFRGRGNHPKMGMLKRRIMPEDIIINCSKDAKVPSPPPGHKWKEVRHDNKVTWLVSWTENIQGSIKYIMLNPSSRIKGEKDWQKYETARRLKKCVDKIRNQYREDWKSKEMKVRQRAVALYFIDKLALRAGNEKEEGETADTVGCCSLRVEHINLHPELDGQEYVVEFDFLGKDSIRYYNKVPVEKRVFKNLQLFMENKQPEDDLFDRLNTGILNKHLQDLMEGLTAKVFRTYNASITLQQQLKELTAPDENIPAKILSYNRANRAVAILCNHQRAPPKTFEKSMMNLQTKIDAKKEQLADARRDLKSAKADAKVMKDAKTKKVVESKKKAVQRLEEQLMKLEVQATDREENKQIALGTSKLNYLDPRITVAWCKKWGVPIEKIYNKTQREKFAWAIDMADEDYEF
Description: In vitro activity against topoisomerase-1 mediated cleavage of supercoiled pBR322 plasmid DNA. It counts as functional.

Data set [3] relates to MKN-45. Description: Cytotoxicity against human stomach cancer cells (MKN-45) after intravenous administration (5 times/week for 2 weeks after tumor grew to 0.2 cme3 or larger). It counts as functional, cell-based. Conditions: MKN-45, 336 h.
Data set [4] deals with P388. Description: Effect on the formation of protein-DNA complex in P388 cells K+/SDS method. It counts as functional, Mus musculus.
In another data set the test system is Mus musculus. Description: Cytotoxicity against human stomach cancer cells (MKN-45) implanted subcutaneously into a side flank of nude mice. The format is functional, Cancer cell lines.
Data set [5] relates to MKN-45. Description: In vitro cytotoxicity (CTX) against human stomach cancer cells (MKN-45) using sulforhodamine B dye-staining method. The format is functional, cell-based. On the technique in general: In SRB staining, fixed cells bind dye roughly in proportion to their protein.
A further data set has as its target DNA topoisomerase II (Homo sapiens, UniProt P11388+Q02880). Description: In vitro activity against topoisomerase-2 mediated cleavage of supercoiled pBR322 plasmid DNA. The format is functional.
Data set [6] in a line: Lethal dose after intravenous administration (5 times/week for 2 weeks after tumor grew to 0.2 cme3 or larger) in mice. It counts as toxicity. The note with it: mouse, in vivo, 336 h.
Data set [7] has as its system P388. Briefly: In vitro cytotoxicity (CTX) against murine leukemia cells (P388) using colorimetric tetrazolium-formazan method. It counts as functional, cell-based. The note with it: Mus musculus.
In data set [8] the target is Protein kinase C alpha type (Homo sapiens, UniProt P17252). Description: In vitro activity evaluated against protein kinase C (using histone II-As as a substrate).

Sequence of Epidermal growth factor receptor (P00533 whole entry): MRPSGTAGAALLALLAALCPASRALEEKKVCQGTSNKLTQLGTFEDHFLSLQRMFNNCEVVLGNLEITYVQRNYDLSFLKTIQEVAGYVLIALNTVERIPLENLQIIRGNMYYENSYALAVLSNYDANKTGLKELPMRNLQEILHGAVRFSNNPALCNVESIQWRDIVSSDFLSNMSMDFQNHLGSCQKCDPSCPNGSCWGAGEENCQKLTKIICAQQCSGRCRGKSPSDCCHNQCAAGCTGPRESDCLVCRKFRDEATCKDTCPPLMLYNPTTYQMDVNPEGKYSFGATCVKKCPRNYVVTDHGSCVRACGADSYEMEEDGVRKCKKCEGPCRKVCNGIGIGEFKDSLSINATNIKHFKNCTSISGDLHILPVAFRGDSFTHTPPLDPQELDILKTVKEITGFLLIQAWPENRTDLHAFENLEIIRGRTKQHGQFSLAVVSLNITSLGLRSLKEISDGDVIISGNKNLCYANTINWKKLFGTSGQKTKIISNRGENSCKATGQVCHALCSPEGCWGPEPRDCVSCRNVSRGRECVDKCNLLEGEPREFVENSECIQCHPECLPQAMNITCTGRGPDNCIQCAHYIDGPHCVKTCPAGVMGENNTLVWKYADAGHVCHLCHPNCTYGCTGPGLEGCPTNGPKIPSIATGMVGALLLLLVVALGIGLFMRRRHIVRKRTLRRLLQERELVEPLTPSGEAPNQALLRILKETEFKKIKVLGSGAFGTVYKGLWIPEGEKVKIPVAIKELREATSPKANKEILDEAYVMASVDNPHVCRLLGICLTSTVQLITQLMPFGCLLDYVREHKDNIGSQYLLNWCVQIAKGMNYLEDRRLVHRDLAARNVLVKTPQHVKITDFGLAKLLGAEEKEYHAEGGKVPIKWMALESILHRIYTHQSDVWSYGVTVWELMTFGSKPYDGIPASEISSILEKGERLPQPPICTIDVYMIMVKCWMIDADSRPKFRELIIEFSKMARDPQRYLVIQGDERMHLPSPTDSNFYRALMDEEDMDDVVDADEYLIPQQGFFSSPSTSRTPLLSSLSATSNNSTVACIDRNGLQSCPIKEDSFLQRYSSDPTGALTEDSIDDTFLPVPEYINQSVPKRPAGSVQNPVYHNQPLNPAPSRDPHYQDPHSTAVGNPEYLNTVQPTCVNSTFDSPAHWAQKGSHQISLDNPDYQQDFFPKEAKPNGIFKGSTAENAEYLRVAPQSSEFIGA

For orientation: pIC50 means −log10 of the IC50, conventionally taken in molar units. The low end stands for a high IC50, the high end for a low IC50. What is called pEC50 is −log10 of the EC50, conventionally taken in molar units. A higher pEC50 goes with a small EC50. In general, EC50 refers to the midpoint of the concentration-response curve. Low readings indicate an effect from little substance, high ones a need for much substance. On to `N#CCCNN1C(=O)c2c(c3c4cccc(O)c4n(C4OC(CO)C(O)C(O)C4O)c3c3[nH]c4c(O)cccc4c23)C1=O` (centres undefined), for which the pIC50 in data set [1] is below 3.70; with MKN-45 [3] it was 7.70; in the data set on MKN-45 [5], 7.70; in the data set with P388 [7], 8.22; in data set [8] it was below 3.70. In [2], the Activity was determined as 3.2 Ratio. For the same compound, the pEC50 on DNA topoisomerase 1 is 7.15. Also, the EC200 in the data set with P388 [4] is 0.9 µM. This compound also came in with a GID75 in the data set with Mus musculus of 200 mg/me2. At DNA topoisomerase II, this compound registered a half-maximal effective concentration (EC50) above 50000 nM. Besides, the LD10 in data set [6] worked out at 640 mg/me2.

Turning to `O=C1c2c(c3c4cccc(O)c4n(C4OC(CO)C(O)C(O)C4O)c3c3[nH]c4c(O)cccc4c23)C(=O)N1NCC(O)CO` (centres undefined), the negative-log IC50 (pIC50) in data set [1] was 3.74; with MKN-45 [3], 7.10; in the data set with MKN-45 [5], 7.10; in the data set with P388 [7] it was 7.54; in data set [8], below 3.70. In addition, the Activity in data set [2] was 1.1 Ratio. The pEC50 on DNA topoisomerase 1 was 6.00. For the same compound, the EC200 in the data set on P388 [4] was 0.7 µM. The compound further showed a GID75 with Mus musculus of 290 mg/me2. This compound also showed an LD10 in [6] of 330 mg/me2.

Regarding `O=C1c2c(c3c4cccc(O)c4n(C4OC(CO)C(O)C(O)C4O)c3c3[nH]c4c(O)cccc4c23)C(=O)N1NC(CO)CO` (centres undefined), the Activity in [2] came out at 5 Ratio. Also, the pEC50 on DNA topoisomerase 1 was 6.24. Moreover, the pIC50 in the data set on MKN-45 [3] is 6.89; in the data set with MKN-45 [5] it was 6.89; with P388 [7] it was 7.77; in [8], below 3.70. Moreover, in the data set on P388 [4], the EC200 was found to be 0.45 µM. The GID75 with Mus musculus worked out at 78 mg/me2. Further, the EC50 at DNA topoisomerase II is above 50000 nM. This compound also registered an LD10 in [6] of 390 mg/me2.

With `O=C(CO)NN1C(=O)c2c(c3c4cccc(O)c4n(C4OC(CO)C(O)C(O)C4O)c3c3[nH]c4c(O)cccc4c23)C1=O` (centres undefined), the negative-log IC50 (pIC50) is below 3.70 in [1]; 6.18 with MKN-45 [3]; 6.18 in the data set with MKN-45 [5]; 6.62 with P388 [7]; below 3.70 in data set [8]. Also, the Activity in data set [2] was above 1.3 Ratio. The compound also showed a pEC50 on DNA topoisomerase 1 of 5.55. In the data set with P388 [4], this compound registered an EC200 of 5 µM. In the data set on Mus musculus, this compound yielded a GID75 of 1200 mg/me2. Besides, on DNA topoisomerase II, the EC50 was above 50000 nM. Moreover, the LD10 in data set [6] is on record as above 1500 mg/me2.

Regarding `O=C1c2c(c3c4cccc(O)c4n(C4OC(CO)C(O)C(O)C4O)c3c3[nH]c4c(O)cccc4c23)C(=O)N1NCCO` (centres undefined), the negative logarithm of the IC50 (pIC50) is below 3.70 in data set [1]; 8.52 with MKN-45 [3]; 8.52 in the data set with MKN-45 [5]; 8.22 in the data set on P388 [7]; below 3.70 in data set [8]. Besides, the Activity in data set [2] is 2.1 Ratio. At DNA topoisomerase 1, the pEC50 was 6.37. The EC200 in the data set with P388 [4] was 0.3 µM. In addition, the GID75 with Mus musculus is 270 mg/me2. In addition, on DNA topoisomerase II, the EC50 was above 50000 nM. For the same compound, in data set [6], the LD10 is given as 560 mg/me2.

`O=CNN1C(=O)c2c(c3c4cccc(O)c4n(C4OC(CO)C(O)C(O)C4O)c3c3[nH]c4c(O)cccc4c23)C1=O` (centres undefined): the pIC50 in [1] was below 3.70; in the data set on MKN-45 [3] it was 6.51; with MKN-45 [5], 6.51; in the data set on P388 [7], 7.12; in data set [8] it was below 3.70. Also, the Activity in data set [2] came out at 1.4 Ratio. The pEC50 at DNA topoisomerase 1 was 6.15. In the data set with P388 [4], the EC200 is 1.4 µM. Further, the GID75 in the data set with Mus musculus worked out at 1152 mg/me2. Besides, at DNA topoisomerase II, the half-maximal effective concentration (EC50) is above 50000 nM. The LD10 in data set [6] is listed as 1600 mg/me2.
